Reference: US20240335462A1, “SULFUR/PHOSPHORUS-CONTAINING ARYL COMPOUND AND APPLICATION THEREOF” (MEDSHINE DISCOVERY INC., priority 2021, published 2024)

Assays:
[1] = test system: JAK1/2 signaling pathway (IL-6/pSTAT1); experiment: IL-6-stimulated pSTAT1 in human PBMC (flow cytometry); type: cell-based; settings: CD4-positive cells
Protocol: (§1) The purpose of this experiment was to detect the inhibitory effect of the compounds on cytokine-activated JAK-STAT signaling pathways in human peripheral blood mononuclear cells (PBMC).
(§2) • a) PBMCs frozen in liquid nitrogen were thawed in a 37° C. water bath, and culture medium was added. The mixture was then centrifuged at 320 g for 3 minutes. • b) Cells were resuspended in culture medium, counted, and the cell concentration was adjusted to 5×10^5 cells/mL with culture medium. Subsequently, the cell suspension was inoculated into […] 96-well round-bottom plates, with 200 μL per well. The plates were incubated at 37° C. with 5% CO2 for 90 minutes. • c) Different concentrations of the test compound (starting at 2 μM, 5-fold serial dilution, a total of 8 concentrations) were added, followed by incubation at 37° C. with 5% CO2 for 30 minutes. • d) IL-6 (final concentration at 20 ng/mL) was added to the first round-bottom plate and incubated at 37° C. with 5% CO2 for 15 minutes. • e) IFNα (final concentration at 1000 U/mL) was added to the second round-bottom plate and incubated at 37° C. with 5% CO2 for 15 minutes. • f) IL-2 (final concentration at 4 ng/mL) was added to the third round-bottom plate and incubated at 37° C. with 5% CO2 for 15 minutes. • g) GM-CSF (final concentration at […]) was added to the fourth round-bottom plate and incubated at 37° C. with 5% CO2 for 15 minutes. • h) Cells were centrifuged at 320 g for 3 minutes, and each well was washed once with 200 μL of staining solution. • i) 50 μL of staining solution containing human CD33 antibody was added to each well of the GM-CSF-stimulated culture plate, and 50 μL of staining solution containing CD4 antibody was added to the remaining three culture plates. The staining was performed at 4° C. for 30 minutes. The cells were washed twice with the staining solution. • j) 100 μL of fixation buffer was added to each well, and the cells were fixed at 4° C. for 15 minutes. The cells were washed once with the staining solution. • k) 100 μL of permeabilization buffer was added to each well, and the cells were permeabilized at 4° C. for 20 minutes. The cells were washed twice with the staining solution. • l) 50 μL of staining solution containing human pSTAT1 antibody was added to each well of the IL-6 and IFN-α-stimulated culture plates, and 50 μL of staining solution containing human pSTAT5 antibody was added to each well of the IL-2 and GM-CSF-stimulated culture plates. The staining was performed at room temperature for 15 minutes. The cells were washed twice with the staining solution. • m) The cells were resuspended in 150 μL of staining solution. • n) The fluorescence intensity of pSTAT1 (stimulated by IL-6 and IFN-α) or pSTAT5 (stimulated by IL-2) in CD4-positive cells was detected using flow cytometer. The fluorescence intensity of pSTAT5 (stimulated by GM-CSF) in CD33-positive cells was also detected.
(§3) Data analysis was performed using Flowjo software to determine the IC50 of the compounds.

[2] = target: Ba/F3-FL-TYK2-E957D cells (Homo sapiens, UniProt P29597, E957D, cells depend on it); experiment: Proliferation of Ba/F3-FL-TYK2-E957D cells (CellTiter-Glo); type: cell-based, mouse; settings: 72 hours, read-out: Half maximal inhibitory concentration IC50 for cells Ba/F3-FL-TYK2-E957D
How it was run: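 Ba/F3 cells stably expressing human full-length TYK2-E957D (JH1+JH2) or TEL-TYK2 (JH1 only) were plated at 2000 cells/well with 9-point 3-fold compound dilutions (0.1% DMSO) for 72 h at 37° C. Viable cells were measured by CellTiter-Glo luminescence; IC50 came from nonlinear S-curve fits.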

[3] = test system: TYK2 signaling pathway (IFN-α/pSTAT1); experiment: IFN-α-stimulated pSTAT1 in human PBMC (flow cytometry); type: cell-based; settings: CD4-positive cells
Protocol: as §1, §2, §3

Chain of Ba/F3-FL-TYK2-E957D cells (P29597 whole entry E957D): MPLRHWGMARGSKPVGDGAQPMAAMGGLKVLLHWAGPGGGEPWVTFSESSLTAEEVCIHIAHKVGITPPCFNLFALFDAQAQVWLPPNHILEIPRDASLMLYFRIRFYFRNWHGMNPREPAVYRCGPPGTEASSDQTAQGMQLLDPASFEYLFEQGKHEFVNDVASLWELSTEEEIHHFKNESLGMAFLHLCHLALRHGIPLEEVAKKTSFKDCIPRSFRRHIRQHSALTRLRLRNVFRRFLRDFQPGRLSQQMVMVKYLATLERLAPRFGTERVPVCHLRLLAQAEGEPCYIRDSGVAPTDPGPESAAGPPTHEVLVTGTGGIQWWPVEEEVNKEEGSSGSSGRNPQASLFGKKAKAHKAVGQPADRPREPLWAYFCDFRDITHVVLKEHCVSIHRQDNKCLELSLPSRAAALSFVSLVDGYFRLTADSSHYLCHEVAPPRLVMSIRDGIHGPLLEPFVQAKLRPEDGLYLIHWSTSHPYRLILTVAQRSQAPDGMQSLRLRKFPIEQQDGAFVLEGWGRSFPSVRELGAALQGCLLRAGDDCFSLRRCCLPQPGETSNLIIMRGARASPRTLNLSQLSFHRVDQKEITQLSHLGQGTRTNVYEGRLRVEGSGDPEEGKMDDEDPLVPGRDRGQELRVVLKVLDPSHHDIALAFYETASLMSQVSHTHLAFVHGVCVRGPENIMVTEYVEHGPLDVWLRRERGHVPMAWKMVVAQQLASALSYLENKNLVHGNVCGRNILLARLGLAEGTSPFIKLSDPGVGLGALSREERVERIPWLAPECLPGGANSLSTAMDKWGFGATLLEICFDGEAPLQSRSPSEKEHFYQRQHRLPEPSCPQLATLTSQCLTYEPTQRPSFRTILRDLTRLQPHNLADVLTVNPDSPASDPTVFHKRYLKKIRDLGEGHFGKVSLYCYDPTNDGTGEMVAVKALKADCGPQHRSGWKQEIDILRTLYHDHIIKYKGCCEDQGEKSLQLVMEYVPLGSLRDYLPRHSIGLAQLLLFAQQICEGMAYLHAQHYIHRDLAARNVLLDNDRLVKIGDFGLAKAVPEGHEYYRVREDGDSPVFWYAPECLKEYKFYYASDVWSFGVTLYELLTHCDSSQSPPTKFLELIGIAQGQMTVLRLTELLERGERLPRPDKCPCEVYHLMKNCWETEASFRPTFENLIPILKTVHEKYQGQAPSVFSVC

## CNC(=O)c1cnc(NC(=O)C2CC2)cc1Nc1cccc(-c2ccc(S(=O)(=O)C(C)C)cn2)c1OC.Cl [Hydrochloride of WX-020]
[1]
  IC50: 164 nM
[2]
  GI50: 1.5 nM
[3]
  IC50: 1.3 nM

## CNC(=O)c1nnc(NC(=O)C2CC2)cc1Nc1cccc(-c2ncc(S(=N)(=O)C(C)C)cn2)c1OC (single isomer, unassigned) [WX-011A]
[1]
  IC50: 87 nM
[2]
  GI50: 5.3 nM
[3]
  IC50: 2.6 nM

## CNC(=O)c1cnc(NC(=O)C2CC2)cc1Nc1cccc(-c2ncc(S(=O)(=O)C(C)C)cn2)c1OC [WX-019]
[1]
  IC50: 99.7 nM
[2]
  GI50: 2 nM
[3]
  IC50: 1.5 nM

## CNC(=O)c1nnc(NC(=O)C2CC2)cc1Nc1cccc(-c2ccc(P(=O)(C3CC3)C3CC3)cn2)c1OC [WX-021]
[1]
  IC50: 63.4 nM
[2]
  GI50: 2.5 nM
[3]
  IC50: 2.1 nM

## CNC(=O)c1nnc(NC(=O)C2CC2)cc1Nc1cccc(-c2ccc(S(=N)(=O)C(C)C)cn2)c1OC (single isomer, unassigned) [WX-012A]
[1]
  IC50: 52.4 nM
[2]
  GI50: 3.3 nM
[3]
  IC50: 2 nM

## CNC(=O)c1nnc(NC(=O)C2CC2)cc1Nc1cccc(-c2ccc(S(=N)(=O)C(C)C)cn2)c1OC (single isomer, unassigned) [WX-012B]
[1]
  IC50: 32.5 nM
[2]
  GI50: 2.4 nM
[3]
  IC50: 1.5 nM

## CNC(=O)c1nnc(NC(=O)C2CC2)cc1Nc1cccc(-c2ncc(S(=N)(=O)C(C)C)cn2)c1OC (single isomer, unassigned) [WX-011B]
[1]
  IC50: 72.5 nM
[2]
  GI50: 3.3 nM
[3]
  IC50: 2.4 nM
